Here are results for 19 compounds from patent US9422307B2, “2,4,7-substituted thieno[3,2-d]pyrimidine compounds as protein kinase inhibitors” (KOREA INSTITUTE OF SCIENCE AND TECHNOLOGY, priority 2009, dated 2016).

Bounds are passed on as bounds.

In series [1] the target is Full sequence FAK (Homo sapiens (Human), UniProt Q05397). Put plainly: Measurement of FAK kinase activity (ULight-LANCE assay). It is filed as biochemical. To be noted: TR-FRET, 3 nM FAK, 10 μM ATP; read-out: FAK inhibition activity (IC50). Here is the method: ULight-poly GT (PerkinElmer #TRF0100-D), Eu-anti-phospho-Tyr (PT66) (PerkinElmer #AD0068) and Lance detection buffer (PerkinElmer #CR-97-100) were purchased from PerkinElmer. […] 4× ULight-poly GT was adjusted to a final concentration of 100 nM. ATP (Sigma #A2383) was adjusted to a final concentration of 10 μM and in 2.5 μL aliquots. The test compound was sequentially diluted at 12 concentrations and treated with an amount of 0.5 μL. After shaking well and allowing to react at room temperature for 60 minutes, 5 μL of ethylenediaminetetraacetic acid (EDTA, final concentration 40 mM) diluted in Lance detection buffer (Lance detection buffer) was added and the mixture was left at room temperature for 5 minutes to stop the reaction. After adding 4× Eu-anti-phospho-Tyr (PT66) phosphorylated antibody diluted to a final concentration of 2 nM in detection buffer with an amount of 5 μL, and reaction was performed at room temperature for 60 minutes.
A general note: In TR-FRET formats the signal depends on donor and acceptor labels being close together.

Series [2] relates to HT-29 human colon adenocarcinoma cells. As to the kind of experiment: Inhibition of proliferation of HT-29 human colon adenocarcinoma cells (MTT assay). It is filed as cell-based. To be noted: HT-29 cells, read-out: Inhibition activity against proliferation of the HT-29 cells (GI50). Here is the method: HT-29 human colon adenocarcinoma cells were cultured in DMEM [10% FBS, 1% penicillin/streptomycin] at 37° C. in the presence of 5% CO2. The cultured HT-29 cells were harvested with 0.05% trypsin-0.02% EDTA and seeded in a 96-well plate at 5×10^3 cells per well.
3-(4,5-Dimethylthiazol-2-yl)-2,5-diphenyltetrazolium bromide (MTT) assay (CellTiter 96 Assay, Promega) was used to measure cell viability. After adding 15 μL of a dye per well and culturing for 2 hours, the cells were treated with 100 μL of a stop solution and absorbance was measured 24 hours later. The test compound was treated a day after plating. The test compound had been sequentially diluted at 12 concentrations from a 10 mM stock solution using sterilized dimethylsulfoxide (DMSO) and treated with an amount of 0.5 μL. Absorbance at 590 nm was recorded using EnVision2103, and GI50 value was calculated using GraphPad Prism 4.0 software.
For orientation: Formazan colour is commonly taken as a measure of viable cells.

For series [3], the system named is tumor. Particulars: concurrent administration with docetaxel, animal model, P values<0.01; cited from earlier work.
In series [4] the test system is prostate cancer PC-3, breast cancer BT-474, colon LoVo, lung cancer NCI-H460, glioblastoma U-87 MG and pancreatic cancer BxPC-3 cells. To be noted: cited from earlier work.

Chain of Full sequence FAK (Q05397 whole entry): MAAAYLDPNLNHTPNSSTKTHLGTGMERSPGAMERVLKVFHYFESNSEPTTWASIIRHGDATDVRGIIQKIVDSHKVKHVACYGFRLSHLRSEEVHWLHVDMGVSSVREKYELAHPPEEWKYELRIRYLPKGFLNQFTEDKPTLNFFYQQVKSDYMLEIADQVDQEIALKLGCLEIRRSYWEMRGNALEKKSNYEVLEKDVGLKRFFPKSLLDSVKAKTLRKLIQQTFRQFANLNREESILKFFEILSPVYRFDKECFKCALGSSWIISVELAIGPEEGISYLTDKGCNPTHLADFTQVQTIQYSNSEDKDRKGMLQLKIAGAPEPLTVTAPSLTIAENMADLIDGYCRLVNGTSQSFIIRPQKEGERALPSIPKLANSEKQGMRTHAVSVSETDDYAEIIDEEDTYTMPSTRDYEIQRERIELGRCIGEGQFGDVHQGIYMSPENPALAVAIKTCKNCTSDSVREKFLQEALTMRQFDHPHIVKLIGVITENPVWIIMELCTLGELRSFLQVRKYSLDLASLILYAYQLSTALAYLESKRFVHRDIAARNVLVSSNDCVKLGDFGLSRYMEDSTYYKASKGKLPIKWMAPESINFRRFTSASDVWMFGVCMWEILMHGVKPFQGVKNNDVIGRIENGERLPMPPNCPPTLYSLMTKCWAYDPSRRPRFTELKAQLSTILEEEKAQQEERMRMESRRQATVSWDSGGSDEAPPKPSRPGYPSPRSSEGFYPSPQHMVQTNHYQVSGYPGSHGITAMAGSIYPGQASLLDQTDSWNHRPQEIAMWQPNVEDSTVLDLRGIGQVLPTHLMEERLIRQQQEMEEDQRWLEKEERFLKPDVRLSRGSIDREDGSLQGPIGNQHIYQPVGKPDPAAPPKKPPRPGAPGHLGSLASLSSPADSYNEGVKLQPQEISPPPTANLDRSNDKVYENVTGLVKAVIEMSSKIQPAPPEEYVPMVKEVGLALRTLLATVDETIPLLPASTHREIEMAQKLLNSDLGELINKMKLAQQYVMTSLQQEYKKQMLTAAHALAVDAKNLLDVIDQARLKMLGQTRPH

By IC50 is commonly meant the concentration that gives 50% inhibition. On to `CNC(=O)c1cccc(-c2csc3c(N)nc(Nc4ccc(N5CCC(N6CCCC6)CC5)cc4)nc23)c1` [Example 7, 3-(4-amino-2-(4-(4-(pyrrolidin-1-yl)piperidin-1-yl)phenylamino)thieno[3,2-d]pyrimidin-7-yl)-N-methylbenzamide], for which the IC50 in series [1] is below 10 µM. Further, in series [2], the GI50 was below 10 µM.

`CNC(=O)c1ccccc1Nc1nc(Nc2ccc(N3CCOCC3)cc2OC)ncc1Cl` [TAE226]: in series [3], the tumor reduction is reported as 85-97%.

`CCN1CCN(c2ccc(Nc3nc(N)c4scc(-c5cnc6ccccc6c5)c4n3)cc2)CC1` [Example 41, N^2-(4-(4-ethylpiperazin-1-yl)phenyl)-7-(quinolin-3-yl)thieno[3,2-d]pyrimidin-2,4-amine]: in series [1], the IC50 was below 10 µM. The GI50 in series [2] was below 10 µM.

Turning to `C=Cc1csc2c(NCc3ccccc3)nc(NCCN3CCOCC3)nc12` [Example 46, N^4-benzyl-N^2-(2-morpholinoethyl)-7-vinylthieno[3,2-d]pyrimidin-2,4-diamine], in series [1], the IC50 was below 10 µM. Also, the GI50 in series [2] was below 10 µM.

Regarding `COc1cc(Nc2nc(N)c3scc(-c4cccc(NC(=O)C5CC5)c4)c3n2)cc(OC)c1OC` [Example 15, N-(3-(4-amino-2-(3,4,5-trimethoxyphenylamino)thieno[3,2-d]pyrimidin-7-yl)phenyl)cyclopropanecarboxamide], the IC50 in series [1] was below 10 µM. Besides, the GI50 in series [2] is below 10 µM.

Take `CCN1CCN(c2ccc(Nc3nc(N)c4scc(-c5cccc(NS(C)(=O)=O)c5)c4n3)cn2)CC1` [Example 27, N-(3-(4-amino-2-(6-(4-ethylpiperazin-1-yl)pyridin-3-ylamino)thieno[3,2-d]pyrimidin-7-yl)phenyl)methanesulfonamide]: the half-maximal inhibitory concentration (IC50) in series [1] was below 10 µM. The GI50 in series [2] was below 10 µM.

In the case of `CN(c1ncccc1CNc1nc(Nc2ccc3c(c2)CC(=O)N3)ncc1C(F)(F)F)S(C)(=O)=O` [PF-562271], the “inhibition of tumor growth or tumor degeneration” value in series [4] (human tumor xenograft, 25-100 mg/kg p.o.) is 42-90%. Further, in series [4] (in vivo), the toxicity observed entry was “No special toxicity has been observed”.

With `CCc1csc2c(NCc3ccccc3)nc(NCCN3CCOCC3)nc12` [Example 48, N^4-benzyl-7-ethyl-N^2-(2-morpholinoethyl)thieno[3,2-d]pyrimidin-2,4-diamine], in series [1], the IC50 was below 10 µM. Moreover, the GI50 in series [2] is below 10 µM.

With `C=Cc1csc2c(N[C@H](C)c3ccccc3)nc(NCCN3CCOCC3)nc12` [Example 47, (R)—N^2-(2-morpholinoethyl)-N^4-(1-phenylethyl)-7-vinylthieno[3,2-d]pyrimidin-2,4-diamine], the IC50 in series [1] was below 10 µM. The GI50 in series [2] is below 10 µM.

For `CCN1CCN(c2ccc(Nc3nc(N)c4scc(-c5cnc6ccccc6c5)c4n3)cn2)CC1` [Example 39, N^2-(6-(4-ethylpiperazin-1-yl)pyridin-3-yl)-7-(quinolin-3-yl)thieno[3,2-d]pyrimidin-2,4-diamine], in series [1], the 50% inhibitory concentration (IC50) is below 10 µM. For the same compound, the GI50 in series [2] is below 10 µM.

As for `C#Cc1csc2c(N[C@H](C)c3ccccc3)nc(NC[C@H](C)O)nc12` [Example 45, (S)-1-(7-ethynyl-4-((R)-1-phenylethylamino)thieno[3,2-d]pyrimidin-2-ylamino)propan-2-ol], in series [1], the IC50 was below 10 µM. For the same compound, the GI50 in series [2] was below 10 µM.

In the case of `Nc1nc(Nc2ccc(N3CCOCC3)nc2)nc2c(-c3cnc4ccccc4c3)csc12` [Example 42, N^2-(6-morpholinopyridin-3-yl)-7-(quinolin-3-yl)thieno[3,2-d]pyrimidin-2,4-diamine], the IC50 in series [1] was below 10 µM. For the same compound, the GI50 in series [2] was below 10 µM.

For the compound `CNC(=O)c1cccc(-c2csc3c(N)nc(Nc4ccc(N5CCC(O)CC5)cc4)nc23)c1` [Example 3, 3-(4-amino-2-(4-(4-hydroxypiperidin-1-yl)phenylamino)thieno[3,2-d]pyrimidin-7-yl)-N-methylbenzamide], the IC50 in series [1] was below 10 µM. Moreover, the GI50 in series [2] is below 10 µM.

As for `CCN1CCN(c2cccc(Nc3nc(N)c4scc(-c5cnc6ccccc6c5)c4n3)c2)CC1` [Example 43, N^2-(3-(4-ethylpiperazin-1-yl)phenyl)-7-(quinolin-3-yl)thieno[3,2-d]pyrimidin-2,4-diamine], the IC50 in series [1] is below 10 µM. In addition, the GI50 in series [2] was below 10 µM.

As for `CCN1CCN(c2ccc(Nc3nc(N)c4scc(-c5cccc(C(=O)NC)c5)c4n3)cc2)CC1` [Example 6, 3-(4-amino-2-(4-(4-ethylpiperazin-1-yl)phenylamino)thieno[3,2-d]pyrimidin-7-yl)-N-methylbenzamide], in series [1], the IC50 was below 10 µM. Further, in series [2], the GI50 is below 10 µM.

Regarding `CNC(=O)c1cccc(-c2csc3c(N)nc(Nc4ccc(N5CCOCC5)nc4)nc23)c1` [Example 2, 3-(4-amino-2-(6-morpholinopyridin-3-ylamino)thieno[3,2-d]pyrimidin-7-yl)-N-methylbenzamide], the IC50 in series [1] was below 10 µM. Moreover, in series [2], the GI50 is below 10 µM.

On to `CNS(=O)(=O)c1cccc(-c2csc3c(N)nc(Nc4cc(OC)c(OC)c(OC)c4)nc23)c1` [Example 26, 3-(4-amino-2-(3,4,5-trimethoxyphenylamino)thieno[3,2-d]pyrimidin-7-yl)-N-methylbenzenesulfonamide], for which, in series [1], the 50% inhibitory concentration (IC50) is below 10 µM. Moreover, in series [2], the GI50 was below 10 µM.

As to `CCS(=O)(=O)Nc1cccc(-c2csc3c(N)nc(Nc4cc(OC)c(OC)c(OC)c4)nc23)c1` [Example 17, N-(3-(4-amino-2-(3,4,5-trimethoxyphenylamino)thieno[3,2-d]pyrimidin-7-yl)phenyl)ethanesulfonamide], in series [1], the IC50 is below 10 µM. Further, the GI50 in series [2] was below 10 µM.

Consider `C#Cc1csc2c(NCc3ccccc3)nc(NC[C@H](C)O)nc12` [Example 44, (S)-1-(4-(benzylamino)-7-ethynylthieno[3,2-d]pyrimidin-2-ylamino)propan-2-ol], for which the GI50 in series [2] is below 10 µM.
